# Values of other authors, collected in patent US20120101005A1, “METHODS FOR PREDICTING THE TOXICITY OF A CHEMICAL” (GE HEALTHCARE UK LIMITED, priority 2009, published 2012).
# Where two headings read alike, the source gives them in different places.
# Columns and labels:
# rat PC12 cells = details: for NGF-induced neuronal differentiation of PC12 cells: monitored by generation of neurite processes
# [1] = target: p140 trk tyrosine kinase NGF-receptor (Rattus norvegicus, UniProt P35739); details: read-out: IC50, p140 trk NGF-receptor autophosphorylation
# EGF receptor = EGF receptor (Homo sapiens, UniProt P00533)
# [2] = tested on: p140 trk tyrosine kinase NGF-receptor; details: compound interacts with NGF
# [3] = tested on: common neurotrophin receptor p75NTR; details: compound interacts with NGF
# [4] = tested on: human embryonic stem cells
# ES cells [5] = details: co-treatment with retinoic acid
# ES cells [6] = tested on: ES cells
# [7] = tested on: 3T3-F442A, 3T3-L1, Ob1771 and embryonic stem cells
# [8] = tested on: C3H10T1/2 mesenchymal stem cells; details: induced with 200 nM insulin, 1 μM BRL49653 and LGD1069; lipogenesis, oil red O-staining, AP2 and LPL expression
# [9] = 1 μM on the first day of the differentiation process
# Sequence of EGF receptor (P00533 25-1210): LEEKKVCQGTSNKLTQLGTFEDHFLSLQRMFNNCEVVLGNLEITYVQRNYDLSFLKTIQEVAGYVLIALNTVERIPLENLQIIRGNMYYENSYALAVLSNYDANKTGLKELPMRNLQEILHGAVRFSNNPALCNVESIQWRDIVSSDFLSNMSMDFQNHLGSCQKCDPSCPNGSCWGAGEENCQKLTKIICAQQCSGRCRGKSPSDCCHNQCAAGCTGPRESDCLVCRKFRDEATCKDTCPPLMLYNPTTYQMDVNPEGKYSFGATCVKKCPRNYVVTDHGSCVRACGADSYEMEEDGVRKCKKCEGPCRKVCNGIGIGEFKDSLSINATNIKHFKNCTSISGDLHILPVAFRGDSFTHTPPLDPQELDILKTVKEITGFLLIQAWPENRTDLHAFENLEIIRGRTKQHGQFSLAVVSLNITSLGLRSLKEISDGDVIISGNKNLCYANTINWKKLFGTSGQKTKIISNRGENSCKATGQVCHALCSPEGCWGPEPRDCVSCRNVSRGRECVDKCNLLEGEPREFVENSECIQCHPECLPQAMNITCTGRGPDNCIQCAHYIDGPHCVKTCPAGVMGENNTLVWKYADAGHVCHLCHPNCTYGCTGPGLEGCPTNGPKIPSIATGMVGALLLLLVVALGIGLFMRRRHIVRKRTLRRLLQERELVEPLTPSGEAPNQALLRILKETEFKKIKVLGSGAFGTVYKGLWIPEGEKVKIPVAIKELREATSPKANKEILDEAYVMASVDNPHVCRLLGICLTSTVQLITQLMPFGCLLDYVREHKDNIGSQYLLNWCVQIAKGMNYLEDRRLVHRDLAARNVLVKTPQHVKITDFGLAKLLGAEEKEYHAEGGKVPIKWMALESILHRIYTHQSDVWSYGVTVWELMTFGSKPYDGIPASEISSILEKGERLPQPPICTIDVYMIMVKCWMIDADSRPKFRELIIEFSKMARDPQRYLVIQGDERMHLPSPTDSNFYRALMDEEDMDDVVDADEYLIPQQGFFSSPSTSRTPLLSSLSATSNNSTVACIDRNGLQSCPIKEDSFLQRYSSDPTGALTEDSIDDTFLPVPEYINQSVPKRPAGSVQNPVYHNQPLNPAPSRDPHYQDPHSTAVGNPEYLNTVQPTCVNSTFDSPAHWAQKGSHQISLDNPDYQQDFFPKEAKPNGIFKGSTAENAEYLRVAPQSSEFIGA
# Sequence of p140 trk tyrosine kinase NGF-receptor (Rattus norvegicus, UniProt P35739) (P35739 33-799): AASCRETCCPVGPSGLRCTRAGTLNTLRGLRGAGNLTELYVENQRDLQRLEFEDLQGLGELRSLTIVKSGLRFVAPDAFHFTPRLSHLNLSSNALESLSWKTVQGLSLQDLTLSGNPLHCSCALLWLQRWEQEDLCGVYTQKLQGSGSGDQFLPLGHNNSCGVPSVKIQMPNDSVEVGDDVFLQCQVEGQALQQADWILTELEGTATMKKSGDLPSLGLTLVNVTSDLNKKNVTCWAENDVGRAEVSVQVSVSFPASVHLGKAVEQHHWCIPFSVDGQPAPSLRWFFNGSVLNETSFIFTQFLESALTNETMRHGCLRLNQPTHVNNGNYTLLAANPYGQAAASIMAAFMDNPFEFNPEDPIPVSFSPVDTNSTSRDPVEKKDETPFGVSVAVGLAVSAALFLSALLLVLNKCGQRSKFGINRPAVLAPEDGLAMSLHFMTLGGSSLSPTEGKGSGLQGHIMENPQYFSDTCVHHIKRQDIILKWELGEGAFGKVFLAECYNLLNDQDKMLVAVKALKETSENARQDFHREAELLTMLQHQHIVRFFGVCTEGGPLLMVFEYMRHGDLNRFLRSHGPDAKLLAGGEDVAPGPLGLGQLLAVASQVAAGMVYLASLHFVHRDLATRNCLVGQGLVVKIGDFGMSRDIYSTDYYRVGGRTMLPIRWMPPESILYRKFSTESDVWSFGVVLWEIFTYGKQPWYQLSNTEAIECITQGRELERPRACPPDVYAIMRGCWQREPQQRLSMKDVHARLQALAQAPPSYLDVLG
compound,measurement,setting,value
CC(C)(C)c1cc(/C=C(\C#N)C(N)=S)cc(C(C)(C)C)c1O [AG-879],NGF-induced neurite outgrowth in PC12 cells,rat PC12 cells,inhibits NGF-induced neurite outgrowth
same,IC50,[1],10 µM
same,inhibition of EGF receptor phosphorylation,EGF receptor,no inhibition
same,inhibition of PDGF receptor phosphorylation,PDGF receptor,no inhibition
"Nc1ncnc2c1ncn2C(C=O)OC(C=O)CO (centres unmarked) [AdOx, Adenosine dialdehyde]","expression levels of the neuronal markers β-tubulin, NeuroD1 and mash1",P19 EC cells; [9],decreased
same,number of neurites observed,P19 EC cells; [9],decreased
"CCCCCCCCCC(=O)N[C@H](CN1CCOCC1)[C@H](O)c1ccccc1 [D-PDMP, D-theo-1-phenyl-2-decanoylamino-3-morphlino-1-propanol]",death of P19-derived neurons,P19 EC cells,causing the death of P19-derived neurons
same,cell death of undifferentiated P19 EC cells,P19 EC cells; 50 μM,without any indication of cell death
same,proliferation of the undifferentiated P19 EC cells,"P19 EC cells; 50 μM, added 3 days prior to retinoic acid and maintained",reduced
same,neurite elongation,"P19 EC cells; 50 μM, neurites present but failed to develop correctly",abolished neurite elongation
same,neurite outgrowth,P19 EC cells; P19 EC in-vitro neuronal differentiation model,inhibited neurite outgrowth
Cc1cc(S(C)(=O)=O)c(S(C)(=O)=O)cc1C(=O)NC(=N)N [EMD87580],cardiomyocyte differentiation of mouse P19 embryonic carcinoma cells,mouse P19 cell; during DMSO induction,inhibit the cardiomyocyte differentiation
COC(=O)[C@]1(O)C[C@H]2O[C@]1(C)n1c3ccc(O)cc3c3c4c(c5c6ccccc6n2c5c31)C(=O)NC4=O [Indocarbazostatin C],NGF-induced neuronal differentiation of PC12 cells,rat PC12 cells,inhibitors
COC(=O)[C@]1(O)C[C@H]2O[C@]1(C)n1c3ccc(O)c(N)c3c3c4c(c5c6ccccc6n2c5c31)C(=O)NC4=O [Indocarbazostatin D],NGF-induced neuronal differentiation of PC12 cells,rat PC12 cells,inhibitors
COC(=O)[C@@]1(O)C[C@H]2O[C@]1(C)n1c3ccccc3c3c4c(c5c6ccccc6n2c5c31)C(=O)NC4 [K-252a],NGF-induced neuronal differentiation of PC12 cells,rat PC12 cells,effective inhibitors
C[C@]12O[C@H](C[C@]1(O)C(=O)O)n1c3ccccc3c3c4c(c5c6ccccc6n2c5c31)CNC4=O [K-252b],NGF-induced neuronal differentiation of PC12 cells,rat PC12 cells,effective inhibitors
"Cn1c2ccc(NC(=O)c3ccccc3)cc2c(=O)n2nc(C(=O)O)cc12 [PD90780, 7-(Benzolylamino)-4,9-Dihydro-4-Methyl-9-Oxo-Pyrazolo[5,1-b]Quinazoline-2-Carboxlic Acid]",NGF-induced neuronal differentiation of PC12 cells,rat PC12 cells,abolishes
same,binding of NGF to p140 trk tyrosine kinase NGF-receptor,[2],preventing its binding
same,binding of NGF to p75NTR,[3],preventing its binding
"COc1cccc(-c2cc(=O)c3ccccc3o2)c1N [PD98059, 2″-Amino-3″-Methoxyflavone]",concentration at which reported as inhibitor of human embryonic stem cell cardiomyocyte differentiation,[4],5 to 25 µM
same,NGF-induced neurite formation in PC12 cells,rat PC12 cells,completely blocks
same,cell viability of PC12 cells,rat PC12 cells,without affecting cell viability
same,adipocyte formation from ES cells,ES cells [5],prevents adipocyte formation
same,expression of adipogenic markers in ES cells,ES cells [5],prevented
same,adipocyte formation from ES cells,ES cells [5]; listed as PD68059,prevented
same,differentiation of ES cells into neuron or cardiomyocytes,ES cells [6],no effect
Cn1cc(C2=C(c3ccc(Cl)cc3Cl)C(=O)NC2=O)c2ccccc21 [SB216763],concentration at which reported as inhibitor of human embryonic stem cell cardiomyocyte differentiation,[4],10 to 25 µM
"C[S+]([O-])c1ccc(-c2nc(-c3ccc(F)cc3)c(-c3ccncc3)[nH]2)cc1 (centres unmarked) [SB 203580, 4-(4″-fluorophenyl)-2-(4″-methylsulfinylphenyl)-5-(4″-pyridyl) imidazole]",P19 cell differentiation into cardiomyocytes,"mouse P19 cell; 10 μM, cardiac-actin by immuno-histochemistry, cardiac-actin and atrial natriuretic peptide by RT-PCR",prevent mouse P19 cell differentiation into cardiomycocytes
same,effect on the activities of ERKs,ERKs,no significant effect
same,effect on the activities of JNKs,JNKs,no significant effect
same,number of cardiomyocytes from human embryonic stem cells,[4]; 15 μM,dramatically reduces the number of cardiomyocytes
same,cardiomyocyte differentiation of human embryonic stem cells,[4]; 25 μM,completely blocked
same,generation of cardiomyocytes from human embryonic stem cells,[4]; 1-10 μM,enhances the generation of cardiomyocytes
CC(C)(C)NC(=O)[C@@H]1CN(Cc2cccnc2)CCN1C[C@@H](O)C[C@@H](Cc1ccccc1)C(=O)N[C@H]1c2ccccc2C[C@H]1O [indinavir],"adipocyte differentiation, by cell model",[7],inhibited the differentiation of only 3T3-L1 and 3T3-F442A cells
Cc1cccc(C)c1OCC(=O)N[C@@H](Cc1ccccc1)[C@@H](O)C[C@H](Cc1ccccc1)NC(=O)[C@H](C(C)C)N1CCCNC1=O [lopinavir],"adipocyte differentiation, by cell model",[7],inhibited adipocyte differentiation in all cells tested
Cc1c(O)cccc1C(=O)N[C@@H](CSc1ccccc1)[C@H](O)CN1C[C@H]2CCCC[C@H]2C[C@H]1C(=O)NC(C)(C)C [nelfinavir],adipocyte differentiation of mesenchymal stem cells,[8],reduced the adipocyte differentiation
same,"adipocyte differentiation, by cell model",[7],inhibited adipocyte differentiation in all cells tested
CC(C)c1nc(CN(C)C(=O)N[C@H](C(=O)N[C@@H](Cc2ccccc2)C[C@H](O)[C@H](Cc2ccccc2)NC(=O)OCc2cncs2)C(C)C)cs1 [ritonavir],adipocyte differentiation of mesenchymal stem cells,[8],reduced the adipocyte differentiation
same,"adipocyte differentiation, by cell model",[7],inhibited the differentiation of only 3T3-L1 and 3T3-F442A cells
CC(C)(C)NC(=O)[C@@H]1C[C@@H]2CCCC[C@@H]2CN1C[C@@H](O)[C@H](Cc1ccccc1)NC(=O)[C@H](CC(N)=O)NC(=O)c1ccc2ccccc2n1 [saquinavir],adipocyte differentiation of mesenchymal stem cells,[8],reduced the adipocyte differentiation
same,"adipocyte differentiation, by cell model",[7],inhibited the differentiation of only 3T3-L1 and 3T3-F442A cells
